{
  "source": "patent US20220142955A1",
  "about": "“METHODS OF TREATING ORGANIC ACIDEMIAS” (HemoShear Therapeutics, Inc., priority 2019, published 2022)",
  "key": {"[1]": {"tested_on": "normal primary hepatocytes", "assay": "HemoShear Technology, normal primary hepatocytes (Example 11)", "type": "cell-based, human", "settings": "Normal pHeps"}, "[2]": {"tested_on": "primary hepatocytes of propionic acidemia patients", "assay": "Propionyl-CoA from various sources in PA primary hepatocytes (Examples 2, 3)", "type": "cell-based, human", "settings": "Homo sapiens, Hepatocyte, read-out: concentration of propionyl-CoA EC50", "experimental": "Primary hepatocytes isolated from livers of propionic acidemia patients are treated with increasing doses of compound 1 (0, 1, 3, 10, 30, 100, 300, 1000 μM) for 30 min. After 30 min the cells are challenged with the different sources of P-CoA, which may include ^13C-ketoisovaleric acid (KIVA) (1 mM), […] (ILE) (3 mM), ^13C-threonine (THR) (5 mM), ^13C-methionine (MET) (5 mM), ^13C-heptanoate (100 μM), or ^13C-propionate (5 mM) for 60 minutes. At the end of the challenge period, media is removed and the cells are lysed with 70% MeCN and 0.1% TFA containing 100 μM of ethymalonyl-CoA as an internal standard and harvested. Cell lysates are processed for HTMS/MS analysis.\nPrimary hepatocytes isolated from livers of propionic acidemia patients are treated with increasing doses of compound 5 (0, 0.1, 0.3, 1, 3, 10, 30, 100 μM) for 30 minutes. After 30 minutes the cells are challenged with the different sources of P-CoA, which may include ^13C-KIVA (1 mM), ^13C-isoleucine (3 mM), ^13C-threonine (5 mM), ^13C-methionine (5 mM), ^13C-heptanoate (100 μM), or ^13C-propionate (5 mM) for 60 minutes. At the end of the challenge period, media is removed and the cells are lysed with 70% MeCN and 0.1% TFA containing 100 μM of ethymalonyl-CoA as an internal standard and harvested. Cell lysates are processed for HTMS/MS analysis."}, "[3]": {"assay": "clinical", "set-up": "species or system human", "settings": "in vivo; for AUC / Cmax: human", "experimental": "In some embodiments, the method entails administering 2,2-dimethylbutyric acid, or a CoA ester or carnitine ester thereof, or a pharmaceutically acceptable salt, ester, or solvate thereof, at a concentration ranging from about, including about […] to 50 mg/kg."}, "[4]": {"tested_on": "PA primary hepatocytes", "assay": "Static cell culture, low/high propiogenic media, PA primary hepatocytes", "type": "cell-based, human", "settings": "for EC50 / EC90: Homo sapiens, Hepatocyte", "experimental": "Unlike the HemoShear Technology, this assay is carried out without constant perfusion, utilizing cell culture media that was customized to mimic plasma levels of propiogenic sources (amino acids and ketoacids) in PA and MMA patients during periods of relative metabolic stability (low propiogenic media) and acute metabolic crisis (high propiogenic media). PA and MMA pHeps, in static cell culture, were treated with Compound 5 (concentrations ranging from 0.1 μM to 100 μM) for 30 minutes in low propiogenic media, followed by either a continuation of low propiogenic media or a switch to the high propiogenic media for 1 hour. The media used during the 1-hour incubation contained propiogenic SIL amino acids and ketoacids which are metabolized into labeled P-CoA and M-CoA in the cells. The SIL amino acids and ketoacids were a mix of ^13C and MeD8 labelling, but their catabolism produced a SIL P-CoA (denoted as ^13C-P-CoA for simplicity) with the same mass, independent of the type of SIL (also true for ^13C-M-CoA)."}, "[5]": {"tested_on": "primary hepatocytes of propionic acidemia patients", "assay": "Reduction of 13C-propionyl-CoA and accumulation of compound-CoA ester after 13C-isoleucine challenge (Example 1)", "type": "cell-based", "settings": "Homo sapiens, Hepatocyte, 13C-labeled isoleucine, compound 0 μM to 1,000 μM", "experimental": "Primary hepatocytes are isolated from explanted livers of propionic acidemia patients and are cultured on day 1 using standard protocols (see: Chapman et al. “Recapitulation of metabolic defects in a model of propionic acidemia using patient-derived primary hepatocytes” Mol. Genet. Metab. 2016, 117(3), 355-362). Approximately 2×10^5 hepatocytes are plated into each well of a collagen-coated 48-well tissue culture plate and pre-conditioned in a custom Modified Corning culture media for Hepatocells (Corning) without low levels of branched chain amino acids for 72 hours. On day 4, hepatocytes are treated with increasing doses of compound (0, 1, 3, 10, 30, 100, 300, 1000 μM) for 30 min. After 30 min the cells are challenged with ^13C-isoleucine (3 mM). At the end of the challenge period, cells are lysed in 100 μL of […] acetonitrile (MeCN) and 0.1% trifluoroacetic acid (TFA) containing 100 μM of ethymalonyl-CoA as an internal standard. Cells are removed from the well by scraping into the lysis buffer. The collected cellular samples are then dispensed into a microfuge tube. The plate wells are washed again with lysis buffer to ensure the remaining cells are dislocated from the well. All remaining collected cells are then moved into the centrifuge tube. The cellular samples are flash frozen in liquid nitrogen and stored at −80° C. To begin processing, the frozen cellular lysates are thawed on ice and vortexed. The samples are centrifuged at 20,000 g for 10 min at 4° C. and the total volume of supernatant is transferred to a no-bind 96-well plate on ice. The samples are dried under vacuum for about 2 hours and then resuspended in 150 μL of water in each well. Total volumes of samples are filtered through a prepared Durapore filter plate into a no-bind 96-well plate. The filtered samples are stored at −80° C. for HTMS/MS analysis."}, "[6]": {"settings": "PA pHeps, high propiogenic, static culture"}, "[7]": {"settings": "PA pHeps, low propiogenic, static culture"}},
  "note": "Where two headings read alike, the source gives them in different places.",
  "data": [
    {"compound": "CCC(C)(C)C(=O)O", "note": "[Compound 5, 2,2-dimethybutanoic acid]", "values": [
      {"measurement": "EC50", "setting": "[1]; Homo sapiens, Hepatocyte, read-out: Compound 5-CoA (formation) EC50", "value": "8300 ± 8000", "unit": "nM"},
      {"measurement": "EC90", "setting": "[1]; Homo sapiens, Hepatocyte, read-out: Compound 5-CoA (formation) EC90", "value": "26100 ± 3100", "unit": "nM"},
      {"measurement": "12C-Acetyl-CoA Percent change at 30 μM", "setting": "[1]", "value": "20 ± 2.9", "unit": "%"},
      {"measurement": "CoASH Percent change at 30 μM", "setting": "[1]", "value": "−35.2 ± 3", "unit": "%"},
      {"measurement": "EC50", "setting": "[2]; 1 mM 13C-KIVA", "value": 890, "unit": "nM"},
      {"measurement": "EC50", "setting": "[2]; 3 mM 13C-ILE", "value": 420, "unit": "nM"},
      {"measurement": "EC50", "setting": "[2]; 5 mM 13C-THR", "value": 1240, "unit": "nM"},
      {"measurement": "EC50", "setting": "[2]; 5 mM 13C-propionate", "value": 15300, "unit": "nM"},
      {"measurement": "AUC", "setting": "[3]; 30 mg/kg", "value": 2180, "unit": "µg·h/mL"},
      {"measurement": "Cmax", "setting": "[3]; 30 mg/kg", "value": 156, "unit": "µg/mL"},
      {"measurement": "AUC", "setting": "[3]; 40 mg/kg", "value": 2620, "unit": "µg·h/mL"},
      {"measurement": "Cmax", "setting": "[3]; 40 mg/kg", "value": 203, "unit": "µg/mL"},
      {"measurement": "AUC", "setting": "[3]; 50 mg/kg", "value": 3200, "unit": "µg·h/mL"},
      {"measurement": "Cmax", "setting": "[3]; 50 mg/kg", "value": 256, "unit": "µg/mL"},
      {"measurement": "Blood plasma concentrations following administration (dose dependence)", "setting": "[3]", "value": "dose proportional"},
      {"measurement": "EC50", "setting": "[4]; PA pHeps, high propiogenic media, static, read-out: 13C-Propionyl-CoA (13C-P-CoA) EC50", "value": "1700 ± 1000", "unit": "nM"},
      {"measurement": "EC90", "setting": "[4]; PA pHeps, high propiogenic media, static, read-out: 13C-Propionyl-CoA (13C-P-CoA) EC90", "value": "11600 ± 7400", "unit": "nM"},
      {"measurement": "EC50", "setting": "[4]; PA pHeps, high propiogenic, static culture, read-out: 12C-Acetyl-CoA EC50", "value": "700 ± 500", "unit": "nM"},
      {"measurement": "EC90", "setting": "[4]; PA pHeps, high propiogenic, static culture, read-out: 12C-Acetyl-CoA EC90", "value": "1900 ± 1300", "unit": "nM"},
      {"measurement": "EC50", "setting": "[4]; PA pHeps, high propiogenic, static culture, read-out: CoASH EC50", "value": "2100 ± 1600", "unit": "nM"},
      {"measurement": "EC90", "setting": "[4]; PA pHeps, high propiogenic, static culture, read-out: CoASH EC90", "value": "11100 ± 13000", "unit": "nM"},
      {"measurement": "EC50", "setting": "[4]; PA pHeps, high propiogenic, static culture, read-out: Compound 5-CoA (formation) EC50", "value": "2600 ± 1600", "unit": "nM"},
      {"measurement": "EC90", "setting": "[4]; PA pHeps, high propiogenic, static culture, read-out: Compound 5-CoA (formation) EC90", "value": "42000 ± 45800", "unit": "nM"},
      {"measurement": "EC50", "setting": "[4]; PA pHeps, low propiogenic media, static, read-out: 13C-Propionyl-CoA (13C-P-CoA) EC50", "value": "2000 ± 1800", "unit": "nM"},
      {"measurement": "EC90", "setting": "[4]; PA pHeps, low propiogenic media, static, read-out: 13C-Propionyl-CoA (13C-P-CoA) EC90", "value": "6900 ± 5400", "unit": "nM"},
      {"measurement": "EC50", "setting": "[4]; PA pHeps, low propiogenic, static culture, read-out: 12C-Acetyl-CoA EC50", "value": "400 ± 200", "unit": "nM"},
      {"measurement": "EC90", "setting": "[4]; PA pHeps, low propiogenic, static culture, read-out: 12C-Acetyl-CoA EC90", "value": "1600 ± 1300", "unit": "nM"},
      {"measurement": "EC50", "setting": "[4]; PA pHeps, low propiogenic, static culture, read-out: CoASH EC50", "value": "900 ± 300", "unit": "nM"},
      {"measurement": "EC90", "setting": "[4]; PA pHeps, low propiogenic, static culture, read-out: CoASH EC90", "value": "9100 ± 5800", "unit": "nM"},
      {"measurement": "EC50", "setting": "[4]; PA pHeps, low propiogenic, static culture, read-out: Compound 5-CoA (formation) EC50", "value": "1400 ± 600", "unit": "nM"},
      {"measurement": "EC90", "setting": "[4]; PA pHeps, low propiogenic, static culture, read-out: Compound 5-CoA (formation) EC90", "value": "15300 ± 11300", "unit": "nM"},
      {"measurement": "EC90", "setting": "[4]; static cell culture, PA and MMA pHeps, low and high propiogenic media together, read-out: average EC90 value across all biomarkers", "value": "11000 ± 9600", "unit": "nM"},
      {"measurement": "13C-Propionyl-CoA (13C-P-CoA) % change at 30 μM", "setting": "[4]; PA pHeps, high propiogenic media, static", "value": "−85.3±9.1", "unit": "%"},
      {"measurement": "12C-Acetyl-CoA Percent change (30 μM)", "setting": "[4]; [6]", "value": "−27 ± 3.4", "unit": "%"},
      {"measurement": "CoASH Percent change (30 μM)", "setting": "[4]; [6]", "value": "−48 ± 14.3", "unit": "%"},
      {"measurement": "13C-Propionyl-CoA (13C-P-CoA) % change at 30 μM", "setting": "[4]; PA pHeps, low propiogenic media, static", "value": "−76.4±12.6", "unit": "%"},
      {"measurement": "12C-Acetyl-CoA Percent change (30 μM)", "setting": "[4]; [7]", "value": "−36.6 ± 13.5", "unit": "%"},
      {"measurement": "CoASH Percent change (30 μM)", "setting": "[4]; [7]", "value": "−55.2 ± 7.1", "unit": "%"},
      {"measurement": "EC50", "setting": "[5]; read-out: concentration of 12C-Compound-CoA ester EC50", "value": 950, "unit": "nM"},
      {"measurement": "EC50", "setting": "[5]; read-out: concentration of 13C-propionyl-CoA EC50", "value": 430, "unit": "nM"}
    ]}
  ]
}
